Source: patent US7858635B2 (priority 2005, dated 2010)

Assays:
M4 muscarinic receptor = target: T1, M4 muscarinic receptor (Homo sapiens, UniProt P08173); test: Functional mobilization of intracellular calcium (FLIPR, Fluo-3), M4-CHO cells; assay type: cell-based; conditions: compound nos. 1-454; for Emax: 100% efficacy is the maximum response obtained with the Carbachol control, read-out: M4 Efficacy
T1 construct: expressed in transfected cells; host or cells: CHO cells (M4-CHO, under puromycin, zeocin and blasticidin selection)
T1 sequence (P08173 1-479): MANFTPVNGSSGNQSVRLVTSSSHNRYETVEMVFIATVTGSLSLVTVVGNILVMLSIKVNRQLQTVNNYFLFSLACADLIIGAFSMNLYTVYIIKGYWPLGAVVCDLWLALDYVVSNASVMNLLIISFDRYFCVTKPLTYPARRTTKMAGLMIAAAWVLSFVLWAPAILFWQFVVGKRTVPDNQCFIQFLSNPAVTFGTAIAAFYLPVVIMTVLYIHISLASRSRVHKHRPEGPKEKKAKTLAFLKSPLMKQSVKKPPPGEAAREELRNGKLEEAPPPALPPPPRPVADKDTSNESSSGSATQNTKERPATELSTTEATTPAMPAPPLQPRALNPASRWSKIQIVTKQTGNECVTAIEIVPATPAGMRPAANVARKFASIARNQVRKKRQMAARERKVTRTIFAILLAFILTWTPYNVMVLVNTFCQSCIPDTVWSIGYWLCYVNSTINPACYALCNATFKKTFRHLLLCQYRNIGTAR
In short: (§1)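 CHO lines stably carrying the muscarinic subtype, dye-loaded with Fluo-3 at 37° C for 60-90 min, receive test compound in 0.5% DMSO. Agonist effects are read directly; antagonist effects against carbachol at EC80 after 15 min pre-incubation.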

M1 muscarinic receptor = target: T2, M1 muscarinic receptor (Homo sapiens, UniProt P11229); test: Functional mobilization of intracellular calcium (FLIPR, Fluo-3), M1-CHO cells; assay type: cell-based; conditions: compound nos. 1-454; for Emax: 100% efficacy is the maximum response obtained with the Carbachol control, read-out: M1 Efficacy
T2 construct: expressed in transfected cells; host or cells: CHO cells (M1-CHO, under zeocin and G418 selection)
T2 sequence (P11229 1-460): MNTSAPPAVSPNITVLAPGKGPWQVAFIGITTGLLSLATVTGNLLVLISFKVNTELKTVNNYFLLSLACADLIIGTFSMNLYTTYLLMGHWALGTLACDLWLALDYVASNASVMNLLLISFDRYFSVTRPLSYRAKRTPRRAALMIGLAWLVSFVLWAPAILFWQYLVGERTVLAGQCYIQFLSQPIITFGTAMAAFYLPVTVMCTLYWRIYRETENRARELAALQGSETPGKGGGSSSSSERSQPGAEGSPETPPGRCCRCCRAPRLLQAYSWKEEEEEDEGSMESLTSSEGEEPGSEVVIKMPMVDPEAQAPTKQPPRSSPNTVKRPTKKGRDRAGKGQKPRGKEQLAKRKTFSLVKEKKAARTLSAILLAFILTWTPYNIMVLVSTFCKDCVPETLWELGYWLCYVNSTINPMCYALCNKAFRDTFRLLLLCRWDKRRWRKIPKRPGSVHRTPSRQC
In short: as §1

[1] = M4-CHO cells, calcium mobilization
[2] = M1-CHO cells, calcium mobilization

## CC(=O)N1CC2(CCN(C3CCOCC3)CC2)c2cc(F)ccc21 [compound 268]
M4 muscarinic receptor
  Emax: < 55%
M4 muscarinic receptor; [1]
  M4 Activity: + (activity was measured to be greater than or equal to 4.0 μM)
M1 muscarinic receptor
  Emax: < 65%
M1 muscarinic receptor; [2]
  M1 Activity: + (activity was measured to be greater than or equal to 3.0 μM)

## COC(=O)N1CC2(CCN(C3CC4CCC(C3)N4C(=O)OCC(C)C)CC2)c2cc(F)ccc21 (centres unmarked) [compound 287]
M4 muscarinic receptor
  Emax: < 55%
M4 muscarinic receptor; [1]
  M4 Activity: + (activity was measured to be greater than or equal to 4.0 μM)
M1 muscarinic receptor
  Emax: < 65%
M1 muscarinic receptor; [2]
  M1 Activity: ++ (activity was measured to be between 0.7 μM and 3.0 μM)

## Clc1ccc2c(c1)C1(CCN(C3CC4CCC(C4)C3)CC1)CN2 (centres unmarked) [compound 85]
M4 muscarinic receptor
  Emax: 55 to 70%
M4 muscarinic receptor; [1]
  M4 Activity: ++ (activity was measured to be between 0.1 μM and 4.0 μM)
M1 muscarinic receptor
  Emax: 65 to 85%
M1 muscarinic receptor; [2]
  M1 Activity: +++ (activity was measured to be less than or equal to 0.7 μM)

## CCCOC(=O)N1CC2(CCN(C3CCN(C(=O)OCC)CC3)CC2)c2cc(F)ccc21 [compound 114]
M4 muscarinic receptor
  Emax: < 55%
M4 muscarinic receptor; [1]
  M4 Activity: + (activity was measured to be greater than or equal to 4.0 μM)
M1 muscarinic receptor
  Emax: 65 to 85%
M1 muscarinic receptor; [2]
  M1 Activity: ++ (activity was measured to be between 0.7 μM and 3.0 μM)

## CCOC(=O)N1CCC(N2CCC3(CC2)CN(C(C)=O)c2c(F)cccc23)CC1 [compound 381]
M4 muscarinic receptor
  M4 Activity: + (activity was measured to be greater than or equal to 4.0 μM)
  Emax: < 55%
M1 muscarinic receptor
  M1 Activity: +++ (activity was measured to be less than or equal to 0.7 μM)
  Emax: 65 to 85%

## CCOC(=O)N1C2CCC1CC(N1CCC3(CCc4ccccc43)CC1)C2 (centres unmarked) [compound 365]
M4 muscarinic receptor
  Emax: < 55%
M4 muscarinic receptor; [1]
  M4 Activity: + (activity was measured to be greater than or equal to 4.0 μM)
M1 muscarinic receptor
  Emax: 65 to 85%
M1 muscarinic receptor; [2]
  M1 Activity: +++ (activity was measured to be less than or equal to 0.7 μM)

## CCOC(=O)N1CCC(N2CCC3(CC2)CN(C(C)=O)c2ccc(-c4cccc(C)c4)cc23)CC1 [compound 6]
M4 muscarinic receptor
  Emax: 55 to 70%
M4 muscarinic receptor; [1]
  M4 Activity: ++ (activity was measured to be between 0.1 μM and 4.0 μM)
M1 muscarinic receptor
  Emax: 65 to 85%
M1 muscarinic receptor; [2]
  M1 Activity: +++ (activity was measured to be less than or equal to 0.7 μM)

## CCOC(=O)N1CCC(N2CCC3(CC2)CN(CCC(=O)CC)c2ccc(F)cc23)CC1 [compound 229]
M4 muscarinic receptor
  Emax: > 70%
M4 muscarinic receptor; [1]
  M4 Activity: +++ (activity was measured to be less than or equal to 0.1 μM)
M1 muscarinic receptor
  Emax: < 65%
M1 muscarinic receptor; [2]
  M1 Activity: ++ (activity was measured to be between 0.7 μM and 3.0 μM)

## CCOC(=O)N1C2CCC1CC(N1CCC3(CC1)CN(C(=O)Nc1c(C)noc1C)c1ccc(F)cc13)C2 (centres unmarked) [compound 83]
M4 muscarinic receptor
  Emax: < 55%
M4 muscarinic receptor; [1]
  M4 Activity: + (activity was measured to be greater than or equal to 4.0 μM)
M1 muscarinic receptor
  Emax: < 65%
M1 muscarinic receptor; [2]
  M1 Activity: +++ (activity was measured to be less than or equal to 0.7 μM)

## CCON=C1CCC(N2CCC3(CC2)CN(C(C)=O)c2ccc(F)cc23)CC1 (centres unmarked) [compound 86, 1-(1′-(4-(ethoxyimino)cyclohexyl)-5-fluorospiro[indoline-3,4′-piperidine]-1-yl)ethanone]
M4 muscarinic receptor
  Emax: < 55%
M4 muscarinic receptor; [1]
  M4 Activity: + (activity was measured to be greater than or equal to 4.0 μM)
M1 muscarinic receptor
  Emax: 65 to 85%
M1 muscarinic receptor; [2]
  M1 Activity: +++ (activity was measured to be less than or equal to 0.7 μM)

## Clc1ccc2c(c1)C1(CCO2)CCN(C2CCCCC2)CC1 [compound 276]
M4 muscarinic receptor
  Emax: 55 to 70%
M4 muscarinic receptor; [1]
  M4 Activity: + (activity was measured to be greater than or equal to 4.0 μM)
M1 muscarinic receptor
  Emax: 65 to 85%
M1 muscarinic receptor; [2]
  M1 Activity: +++ (activity was measured to be less than or equal to 0.7 μM)

## CN(C)C(=O)N1CC2(CCN(CC3CCN(c4nccs4)C3)CC2)c2cc(F)ccc21 (centres unmarked) [compound 451]
M4 muscarinic receptor
  M4 Activity: +++ (activity was measured to be less than or equal to 0.1 μM)
M1 muscarinic receptor
  M1 Activity: ++ (activity was measured to be between 0.7 μM and 3.0 μM)

## CCOC(=O)N1CCC(N2CCC3(CC2)CN(C(=O)c2ccc(OC)cc2)c2ccc(F)cc23)CC1 [compound 41]
M4 muscarinic receptor
  Emax: > 70%
M4 muscarinic receptor; [1]
  M4 Activity: +++ (activity was measured to be less than or equal to 0.1 μM)
M1 muscarinic receptor
  Emax: > 85%
M1 muscarinic receptor; [2]
  M1 Activity: +++ (activity was measured to be less than or equal to 0.7 μM)

## CCOC(=O)N1C2CCC1CC(N1CCC3(CC1)CN(C(=O)c1ccc(F)cc1)c1ccc(F)cc13)C2 (centres unmarked) [compound 222]
M4 muscarinic receptor
  Emax: < 55%
M4 muscarinic receptor; [1]
  M4 Activity: + (activity was measured to be greater than or equal to 4.0 μM)
M1 muscarinic receptor
  Emax: < 65%
M1 muscarinic receptor; [2]
  M1 Activity: + (activity was measured to be greater than or equal to 3.0 μM)

## CCOC(=O)C1CCC(N2CCC3(CC2)CN(C(C)=O)c2ccc(F)cc23)CC1 (centres unmarked) [compound 228]
M4 muscarinic receptor
  Emax: < 55%
M4 muscarinic receptor; [1]
  M4 Activity: + (activity was measured to be greater than or equal to 4.0 μM)
M1 muscarinic receptor
  Emax: < 65%
M1 muscarinic receptor; [2]
  M1 Activity: + (activity was measured to be greater than or equal to 3.0 μM)

## CS(=O)(=O)N[C@H]1CC2(CCN(C[C@H]3C[C@H]4C=C[C@H]3C4)CC2)c2ccccc21 [compound 70]
M4 muscarinic receptor
  Emax: 55 to 70%
M4 muscarinic receptor; [1]
  M4 Activity: + (activity was measured to be greater than or equal to 4.0 μM)
M1 muscarinic receptor
  Emax: 65 to 85%
M1 muscarinic receptor; [2]
  M1 Activity: ++ (activity was measured to be between 0.7 μM and 3.0 μM)

## Cc1ccc2c(c1)C1(CCN(C3CC4CCC(C4)C3)CC1)CN2 (centres unmarked) [compound 397]
M4 muscarinic receptor
  M4 Activity: + (activity was measured to be greater than or equal to 4.0 μM)
  Emax: < 55%
M1 muscarinic receptor
  M1 Activity: ++ (activity was measured to be between 0.7 μM and 3.0 μM)
  Emax: 65 to 85%

## CCOC(=O)N1CCC(N2CCC3(CC2)CN(C(C)=O)c2ccc(-c4ccc(C(F)(F)F)cc4)cc23)CC1 [compound 295]
M4 muscarinic receptor
  Emax: 55 to 70%
M4 muscarinic receptor; [1]
  M4 Activity: +++ (activity was measured to be less than or equal to 0.1 μM)
M1 muscarinic receptor
  Emax: 65 to 85%
M1 muscarinic receptor; [2]
  M1 Activity: +++ (activity was measured to be less than or equal to 0.7 μM)

## CC(=O)N1CC2(CCN(C3CCN(c4nccs4)CC3)CC2)c2cc(F)ccc21 [compound 432]
M4 muscarinic receptor
  M4 Activity: +++ (activity was measured to be less than or equal to 0.1 μM)
  Emax: 55 to 70%
M1 muscarinic receptor
  M1 Activity: +++ (activity was measured to be less than or equal to 0.7 μM)
  Emax: 65 to 85%

## CC(=O)N[C@H]1CC2(CCN(C3CCCCCCC3)CC2)c2ccccc21 [compound 261]
M4 muscarinic receptor
  Emax: < 55%
M4 muscarinic receptor; [1]
  M4 Activity: + (activity was measured to be greater than or equal to 4.0 μM)
M1 muscarinic receptor
  Emax: < 65%
M1 muscarinic receptor; [2]
  M1 Activity: ++ (activity was measured to be between 0.7 μM and 3.0 μM)

## CCOC(=O)N1C2CCC1CC(N1CCC3(CC1)CN(C(=O)NC(C)C)c1ccc(F)cc13)C2 (centres unmarked) [compound 296]
M4 muscarinic receptor
  Emax: 55 to 70%
M4 muscarinic receptor; [1]
  M4 Activity: + (activity was measured to be greater than or equal to 4.0 μM)
M1 muscarinic receptor
  Emax: 65 to 85%
M1 muscarinic receptor; [2]
  M1 Activity: + (activity was measured to be greater than or equal to 3.0 μM)

## CCOC(=O)N1CCC(N2CCC3(CC2)CN(C(=O)c2cccc(OC)c2)c2ccc(F)cc23)CC1 [compound 45]
M4 muscarinic receptor
  Emax: 55 to 70%
M4 muscarinic receptor; [1]
  M4 Activity: +++ (activity was measured to be less than or equal to 0.1 μM)
M1 muscarinic receptor
  Emax: > 85%
M1 muscarinic receptor; [2]
  M1 Activity: +++ (activity was measured to be less than or equal to 0.7 μM)
